“Also recorded” adds a separate entry of the source.
Legend:
[1] = test system: HepG2 cells; assay: Live/dead ratio, trypan blue and automated cell counter; assay type: cell-based, human; conditions: HepG2, secretory; 2 μM monensin over 2 days
Protocol: (§1) Various cell lines treated with 2 μM of monensin over 2 days show increased cell death. Cells were counted using countess 2 automated cell counter to determine live/dead ratios.
(§2) HEK 293, IMR-90 and HeLa cells were grown in DMEM supplemented with 10% fetal bovine serum, 1% Penicillin/streptomycin and L-glutamine (2 mmole/liter) (Biological industries) at 37° C. with 5% CO2. Drugs were introduced to cells for 2 hrs at varying concentrations. Tunicamycin (Sigma) was given at 5 μg/ml. Treatment with the glycosylation inhibitor tunicamycin is known to cause accumulation of unfolded glycoproteins in the ER which is followed by […] of these aberrant proteins. […] Monensin (Enco scientific services) was given at 2 mM and MG-132 (Biotest) at 40 μM. Monensin is an antibiotic, commercially known as Golgi-stop. This drug inhibits the transport of proteins between the medial and trans-Golgi stacks thus also inhibiting phosphorylation, addition of galactose to glycoproteins and sulfation that occur in the trans-Golgi (Griffiths et al., 1983; Rosa et al., 1992). Cell death assessment was done by trypan blue staining and counted with Countess IFM automated cell counter (Thermo Fisher). Proliferation of mammalian cells was measured by XTT assay.
(§3) Accumulation of proteins in cells is highly cytotoxic. This cytotoxicity is potentially higher in highly secretory cells, wherein a large mass of proteins is constantly moving through the Golgi apparatus. […] The present inventors examined the long-term effect of Golgi traffic inhibition on secretory cells. Four human cell lines were selected, two that are non-secretory (HEK293 and HeLa) and two secretory cell lines (HepG2 and RPMI 8226) and assessed their live/dead ratios over 2 days of treatment with monensin.

[2] = test system: HEK293 cells; assay: as above; assay type: cell-based, human; conditions: HEK293, non-secretory; 2 μM monensin over 2 days
Protocol: as §1, §2, §3

[3] = test system: HeLa cells; assay: as above; assay type: cell-based, human; conditions: non-secretory, 2 μM monensin over 2 days
Protocol: as §1, §2, §3

[4] = test system: polyubiquitin in the Golgi of HeLa cells; assay: High content immunofluorescence microscopy of polyubiquitin in drug-treated cells; assay type: cell-based, human; conditions: drugs for 2 hrs (tunicamycin 5 μg/ml, monensin 2 mM, MG-132 40 μM), vs untreated
Protocol: as §2
HeLa cells, grown on 96-well ‘cell carrier’ plates (Perkin Elmer) were fixed in 4% paraformaldehyde (Electron microscopy sciences) and permeabilized in 0.5% triton (sigma)—PBS (biological industries). Primary antibodies were introduced for 1 hr and secondary antibodies for 30 min, both in PBS-2% BSA. Hoechst staining (Sigma) was done per product protocol. Images were acquired using the ‘Operetta’ high content screening microscope at X40 magnification and analyzed by ‘Harmony’ software (Perkin Elmer).
Constitutive and Stress-Induced Ubiquitylation of Proteins Retained in the Golgi The bioinformatics analysis of the extent of ubiquitylation in the Golgi prompted us to confirm the prediction for Golgi ubiquitylation in live mammalian cells. To this end, a high content screening microscopy system was utilized to assess and quantify the levels of polyubiquitylation in the Golgi apparatus under various stress inducing drug treatments. For this assay, drugs known to induce cell stress by different pathways were selected. Immunofluorescence images of HeLa cells stained for the Golgi marker giantin and poly-ubiquitin show Golgi localized polyubiquitylated puncta, indicating a basal level of protein steady state polyubiquitylation in the Golgi (FIG. 3A). Proteasomal inhibition is known to cause the accumulation of polyubiquitylated proteins that are bound for proteasomal degradation in the cell (37).
Next, the present inventors examined whether or not this accumulation also occurs in the Golgi, following treatment with the proteasomal inhibitor MG-132. […] This increase in polyubiquitylated proteins in the Golgi points to the possibility that as in the case of ERAD, polyubiquitylated proteins that are bound for degradation accumulate in the Golgi as well as in the ER upon proteasomal inhibition. Treatment with the glycosylation inhibitor tunicamycin is known to cause accumulation of unfolded glycoproteins in the ER which is followed by poly-ubiquitylation and degradation of these aberrant proteins. […] Monensin is an antibiotic, commercially known as Golgi-stop. This drug inhibits the transport of proteins between the medial and trans-Golgi stacks thus also inhibiting phosphorylation, addition of galactose to glycoproteins and sulfation that occur in the trans-Golgi (40, 41). […]

[5] = test system: 5TGM1 MM cells; assay: FACS apoptosis measurement with annexin V and 7AAD; assay type: cell-based, murine; conditions: 5TGM1 cells; 12 hours, 1 μM monensin
Protocol: FIGS. 10A-10F show apoptosis measurement by FACS analyses of murine MM 5TGM1 cells treated with monensin. […] Bortezomib is a golden standard drug for MM.
Untreated cells show an expected low level of cell death, as in controls for DMSO, in which bortezomib is diluted and ethanol, in which monensin is diluted (FIGS. 10A-C).

[6] = test system: RPMI 8226 cells; assay: Live/dead ratio, trypan blue and automated cell counter; assay type: cell-based, human
Protocol: as §1
(A) Quantification of live/dead cells following 48 hours of monensin treatment (2 μM). (B) Quantification of cell death of RPMI-8226 cells over 3 days of treatment with monensin […]. (C) Western blot against K48-linked polyubiquitin chains of Golgi fractions collected from RPMI 8226 cells either untreated or treated with monensin for 2 hrs. (D) XTT assay of untreated HeLa cells following siRNA mediated knockdowns as indicated Pvalue(siPSMD6+siHACE1)=0.002. […] (H) FACS analysis and quantification of multiple myeloma cells (MM) and normal B cells (BC) in spleens of control vs. monensin-treated mice Pvalue(MM monensin)=0.008. (I) FACS analysis and quantification of multiple myeloma cells (MM) and normal B cells (BC) in bone marrow of control vs. monensin-treated mice. […]
HEK 293, IMR-90 and HeLa cells were grown in DMEM supplemented with 10% fetal bovine serum, 1% Penicillin/streptomycin and L-glutamine (2 mmole/liter) (Biological industries) at 37° C. with 5% CO2. […] Cell death assessment was done by trypan blue staining and counted with Countess IFM automated cell counter (Thermo Fisher). Proliferation of mammalian cells was measured by XTT assay. […]

SMILES: CC[C@@]1([C@@H]2O[C@@H]([C@H]3O[C@@](O)(CO)[C@H](C)C[C@@H]3C)C[C@@H]2C)CC[C@H]([C@]2(C)CC[C@]3(C[C@H](O)[C@@H](C)[C@@H]([C@@H](C)[C@@H](OC)[C@H](C)C(=O)O)O3)O2)O1 [monensin]
- cell death (live/dead ratio) [1]: more susceptible to cell death
- cell death (live/dead ratio) [2]: little effect
- cell death (live/dead ratio) [3]: little effect; also recorded: largely insensitive
- Golgi-localized polyubiquitin [4]: increase in Golgi localized poly-ubiquitin, to slightly lower levels than those measured with tunicamycin
- apoptotic cell death [5]: comparable to that found in bortezomib treated cells
- cell death (live/dead ratio) ([6]; RPMI 8226 multiple myeloma, secretory, 2 μM monensin over 2 days): greatest; also recorded: particularly sensitive
- MM cells killed ([6]; RPMI-8226 cells, 3 days of treatment with monensin): 99%

— US20200268707A1, “METHODS OF MODULATING PROTEIN EXOCYTOSIS AND USES OF SAME IN THERAPY” (Yeda Research and Development Co. Ltd., priority 2016, published 2020)
